Experiment [1] deals with TNF-α release from IL-1α activated PEC. Put plainly: TNF-α release from IL-1α activated PEC, ELISA. The experiment is classed as cell-based. Particulars: Mus musculus, 50 ng/ml IL-1α, at the tested time points (24, 48, 72 hrs), read-out: inhibition of induced levels of TNF-α. As to the method: Cells were isolated and treated with or without CT1501R (250 μM) 1 hour prior to IL-1-α activation. The supernatants were collected at 24, 48 or 72 hrs following activation and assayed for TNF-α by ELISA (+/-SD).
(§1) Murine peritoneal exudate cell macrophages (PEC) were isolated by perfusion of mouse peritoneum and plated into 96-well trays at 5×10^5 cells per well. Cells were stimulated with 5 μg/ml Salmonella abortus equi-derived endotoxin CLPS; Sigma Chemical Co., L-1887) or 50 ng/ml IL-1α (Genzyme; Cambridge, Mass.) with or without the addition of CT1501R added to the cultures one hour prior to addition of the stimulus. At various times thereafter, supernatants were removed and levels of either TNF-α or IL-1α were assayed using commercial 96-well microtiter immunoassay kits (Genzyme; TNF; Endogen, Boston, Mass.; IL-1α) according to manufacturer's specifications. For the adhesion studies, early passage human umbilical vein endothelial cells (HUVEC) were obtained from commercial suppliers (Clonetics, San Diego, Calif. or Cell Systems, Seattle, Wash.) and cultured in defined, Hepes buffered, serum free medium (Cell Systems, cat 301-180) supplemented with acidic FGF (Cell Systems cat 401-111). […] After addition of […] Hanks Balanced Salt Solution (HBSS), the microtiter plate was then analyzed on a Millipore Cytofiuor fluorescent plate reader (excitation 488 nm; emission 525 nm). […]
Background: ELISA stands for enzyme-linked immunosorbent assay.

Experiment [2] deals with adhesion of U937 cells to activated HUVEC. The experiment in a line: adhesion of U937 cells to activated HUVEC (BCECF fluorescence). The format is cell-based, human. Conditions: 250 μM. The procedure: HUVEC were stimulated with either IL-1-α (100 ng/ml); TNF-α (10 ng/ml) or LPS ([…]) with or without the addition of 250 μM CT1501R one hour prior to addition of the stimulus. Twelve hours later, the cells were assayed for adhesion of BCECF-labeled U937 cells. FIG. 21 is the relative BCECF fluorescence (+/-SD) for each of the treatment groups.
as §1, with “specifications.” for “specifications. For the adhesion studies, early passage human umbilical vein endothelial cells (HUVEC) were obtained from commercial suppliers (Clonetics, San Diego, Calif. or Cell Systems, Seattle, Wash.) and cultured in defined, Hepes buffered, serum free medium (Cell Systems, cat 301-180) supplemented with acidic FGF (Cell Systems cat 401-111).”

Each structure is given as a SMILES string.

The term inhibition denotes the relative decrease from the control value, in per cent. With `C[C@@H](O)CCCCn1c(=O)c2c(ncn2C)n(C)c1=O` [CT1501R, (R)-1-(5-hydroxyhexyl)-3,7-dimethylxanthine], the inhibition at 250 µM in experiment [1] lay within 50 to 70%. Besides, the “relative adhesiveness of activated HUVEC for U937 cells” value in experiment [2] (1 hour prior to TNF-α, IL-1α or LPS) was “marked suppression in the relative adhesiveness”. Further, the “background attachment of U937 cells to HUVEC” value in experiment [2] (non-activated HUVEC) was “no significant effect on background attachment”.

Values taken from patent US5621102A, “Process for preparing enantiomerically pure xanthine derivatives” (Cell Therapeutics, Inc., priority 1995, dated 1997).
